Reference: patent US20250235499A1, “ANTI-OVARIAN CANCER PHARMACEUTICAL COMPOSITION AND ACTION TARGET THEREOF” (Zhejiang Chinese Medical University, priority 2024, published 2025)

How the values were obtained:
[1] = system: E-cadherin, N-cadherin, Vimentin in Hey cells; experiment: Expression of EMT related proteins in cells; type: cell-based, human
Hey ovarian cancer cell = experiment: Tumor bearing nude mouse model (tumor volume, tumor inhibition rate, body weight); type: in vivo, BALB/c nude mice; conditions: intraperitoneal, 15 days; DDP 3 mg/kg, CA 80 mg/kg, BDMC 5 mg/kg; compared to the Control group, P<0.01
Description: Newly housed BALB/c nude mice were placed in an SPF grade feeding room laminar flow rack for adaptive feeding for one week, and the experimental animal status was adjusted. A Hey ovarian cancer cell was cultivated to the logarithmic growth stage, and the original culture medium was discarded. The Hey ovarian cancer cell was washed with PBS buffer, added with 0.1% trypsin digestion for digestion, added with the corresponding culture medium to terminate digestion, centrifuged at 1000 rpm for 3 minutes, and added with PBS buffer to prepare a cell suspension. The cell was counted using a hemocytometer, and the cell concentration was quantified to 5×10^7 cells/mL. After grasping and fixing the nude mouse with the left hand, and the skin at a needle inserting site on the right forelimb axilla of the nude mouse was disinfected with a 75% alcohol cotton ball. A disposable 1 mL syringe was used to inject approximately 100 μL of cell suspension subcutaneously into the posterior axilla of the right forelimb in an oblique stabbing inserting needle mode, so that each nude mouse was injected with approximately 5×10^6 cells. After vaccination, the needle inserting site was gently pressed with a cotton ball to prevent the cell suspension from leaking from a needle hole. The growth status of tumors at the vaccination site of nude mice was observed daily. After about one week, if the tumors at the vaccination site were compacted and appeared light red in color, it could be considered as successful tumor growth. At this time, the nude mice were randomly divided into 5 groups, a Control group intraperitoneally injected with physiological saline for 1 day each time; a DDP group intraperitoneally injected with cisplatin, 3 mg/kg, 3 d/time; a CA group intraperitoneally injected with CA, 80 mg/kg, 1 d/time; a BDMC group intraperitoneally injected with BDMC, 5 mg/kg, 1 d/time; a CA+BDMC group intraperitoneally injected with CA 80 mg/kg+BDMC 5 mg/kg, 1 d/time, 8 animals per group. A tumor length (L) and a […] were measured with a vernier caliper every 3 days to calculate a tumor volume. After 15 days of administration, nude mice were euthanized by dislocation of cervical vertebra, and tumor tissue was dissected. The tumor weight was weighed to calculate the tumor inhibition rate. The tumor tissue was stored in two batches at −80° C. and fixed with 4% paraformaldehyde.

[2] = system: E-cadherin, N-cadherin, Vimentin; experiment: Western Blot of tumor body EMT related proteins in tumor bearing nude mice; type: in vivo, BALB/c nude mice; conditions: nude mouse tumor body, compared to the Control group
Description: The expression of EMT related proteins was shown in FIG. 30: (1) represented the Control group; (2) represented the DDP group; (3) represented the CA group; (4) represented the BDMC group; and (5) represented the CA+BDMC group.

[3] = system: MCM2 protein in SKOV3 cells; experiment: MCM2 protein expression in ovarian cancer cell after intervention; type: cell-based, human; conditions: SKOV3, 24 hours, 100 μmol/L CA, 6.25 μmol/L BDMC; compared to the Control group
Description: (§1) The effect of intervention on MCM2 protein expression in the SKOV3 and Hey ovarian cancer cells for 24 hours in the CA group using 100 μmol/L CA, the BDMC group using 6.25 μmol/L BDMC, and the CA+BDMC group using 100 μmol/L CA+6.25 μmol/L BDMC in Example 1 was shown in FIGS. 16A-16B, wherein A represented the expression of MCM2 protein in SKOV3 cells; B represented the expression of MCM2 protein in Hey cells compared to the Control group, #P<0.05, ##P<0.01; and compared with the CA+BDMC group, &P<0.05, &&P<0.01.

[4] = system: MCM2 protein in Hey cells; experiment: as above; type: cell-based, human; conditions: 24 hours, 100 μmol/L CA, 6.25 μmol/L BDMC, compared to the Control group
Description: as §1

[5] = system: MCM2, CDK4, Cyclin D1, P21; experiment: Immunohistochemical assay of tumor body cell cycle related proteins in tumor bearing nude mice; type: in vivo, BALB/c nude mice; conditions: nude mouse tumor body, compared to the Control group
Description: The immunohistochemistry of tumor body cyclin in tumor bearing nude mice after intervention with DDP, CA, BDMC, and combined administration was shown in FIG. 28. The image was magnified by 400×, with a scale of 10 μM. The expression of MCM2, CDK4, and Cyclin D1 proteins in the CA group, BDMC group, and CA+BDMC group decreased compared to the Control group; and the expression of MCM2, CDK4, and Cyclin D1 proteins in the CA+BDMC group decreased compared to the CA group and BDMC group. The expression of P21 protein in the CA group, BDMC group, and CA+BDMC group increased compared to the Control group; and the expression of P21 protein in the CA+BDMC group increased compared to the CA group and BDMC group.

[6] = Hey OE-MCM2 cells (MCM2 overexpression), vs OE-MCM2 group
[7] = Hey OE-NC cells (empty vector), vs OE-NC group
[8] = Hey sh-MCM2 cells (MCM2 knockdown), vs sh-MCM2 group
[9] = Hey sh-NC cells (empty vector), vs sh-NC group

Structure (SMILES): COc1ccc(-c2coc3cc(O)ccc3c2=O)cc1O [CA, calycosin]
- expression of E-cadherin [1, 6]: no significant change
- expression of N-cadherin [1, 6]: no significant change
- expression of Vimentin [1, 6]: no significant change
- expression of E-cadherin [1, 7]: significantly increased
- expression of N-cadherin [1, 7]: significantly decreased
- expression of Vimentin [1, 7]: significantly decreased
- expression of E-cadherin [1, 8]: no significant change
- expression of N-cadherin [1, 8]: no significant change
- expression of Vimentin [1, 8]: no significant change
- expression of E-cadherin [1, 9]: significantly increased
- expression of N-cadherin [1, 9]: significantly decreased
- expression of Vimentin [1, 9]: significantly decreased
- tumor inhibition rate (Hey ovarian cancer cell): significantly increased
- tumor volume size (Hey ovarian cancer cell): significantly reduced
- expression of E-cadherin protein (Western Blot) [2]: significantly increased
- expression of N-cadherin protein (Western Blot) [2]: significantly decreased
- expression of Vimentin protein (Western Blot) [2]: significantly decreased
- expression of the MCM2 protein [3]: significantly decreased
- expression of the MCM2 protein [4]: significantly decreased
- expression of CDK4 protein (immunohistochemistry) [5]: decreased
- expression of Cyclin D1 protein (immunohistochemistry) [5]: decreased
- expression of MCM2 protein (immunohistochemistry) [5]: decreased
- expression of P21 protein (immunohistochemistry) [5]: increased
